Reference: patent US20240139211A1, “METHODS AND COMPOSITIONS FOR TREATING AMYOTROPHIC LATERAL SCLEROSIS” (Amylyx Pharmaceuticals, Inc., priority 2022, published 2024)
Read-outs that look alike come from different tables or passages of the source.

Columns and labels:
BCRP = molecular target: T1, BCRP (Homo sapiens, UniProt Q9UNQ0); experiment: Substrate of BCRP (Caco-2 cells, selective inhibitor)
T1 sequence (Q9UNQ0 1-655): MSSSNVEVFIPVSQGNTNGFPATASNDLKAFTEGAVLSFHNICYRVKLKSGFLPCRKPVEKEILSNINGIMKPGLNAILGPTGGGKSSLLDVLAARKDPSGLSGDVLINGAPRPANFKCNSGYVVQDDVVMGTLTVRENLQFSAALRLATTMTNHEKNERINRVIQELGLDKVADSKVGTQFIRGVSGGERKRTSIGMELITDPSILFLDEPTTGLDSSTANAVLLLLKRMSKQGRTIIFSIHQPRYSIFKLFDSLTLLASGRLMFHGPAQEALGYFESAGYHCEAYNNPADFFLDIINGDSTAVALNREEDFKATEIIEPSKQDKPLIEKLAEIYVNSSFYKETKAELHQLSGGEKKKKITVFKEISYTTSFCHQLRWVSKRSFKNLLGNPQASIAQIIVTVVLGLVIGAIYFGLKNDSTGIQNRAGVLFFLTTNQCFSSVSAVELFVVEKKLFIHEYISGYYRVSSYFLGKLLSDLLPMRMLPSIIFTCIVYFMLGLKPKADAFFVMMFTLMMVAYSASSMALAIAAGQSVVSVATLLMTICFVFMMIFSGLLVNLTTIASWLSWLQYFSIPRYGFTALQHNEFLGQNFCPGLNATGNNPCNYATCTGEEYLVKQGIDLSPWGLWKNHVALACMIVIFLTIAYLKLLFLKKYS

OATP1B1 [1] = molecular target: T2, OATP1B1 (Homo sapiens, UniProt Q9Y6L6); experiment: Inhibitor of OATP1B1, probe substrate uptake; conditions: for potency estimated from few doses: read-out: Estimated IC50, OATP1B1; for Inhibition of OATP1B1 / Inhibitor of OATP1B1: two concentrations per test article
P-gp = P-gp (Homo sapiens, UniProt P08183); experiment: Inhibitor of P-gp, 3H-digoxin efflux in Caco-2 cells; conditions: for potency estimated from few doses: read-out: Estimated IC50, P-gp
OAT1 = molecular target: T3, OAT1 (Homo sapiens, UniProt Q4U2R8); experiment: Substrate of OAT1, uptake in HEK293 cells
T3 sequence (Q4U2R8 1-563): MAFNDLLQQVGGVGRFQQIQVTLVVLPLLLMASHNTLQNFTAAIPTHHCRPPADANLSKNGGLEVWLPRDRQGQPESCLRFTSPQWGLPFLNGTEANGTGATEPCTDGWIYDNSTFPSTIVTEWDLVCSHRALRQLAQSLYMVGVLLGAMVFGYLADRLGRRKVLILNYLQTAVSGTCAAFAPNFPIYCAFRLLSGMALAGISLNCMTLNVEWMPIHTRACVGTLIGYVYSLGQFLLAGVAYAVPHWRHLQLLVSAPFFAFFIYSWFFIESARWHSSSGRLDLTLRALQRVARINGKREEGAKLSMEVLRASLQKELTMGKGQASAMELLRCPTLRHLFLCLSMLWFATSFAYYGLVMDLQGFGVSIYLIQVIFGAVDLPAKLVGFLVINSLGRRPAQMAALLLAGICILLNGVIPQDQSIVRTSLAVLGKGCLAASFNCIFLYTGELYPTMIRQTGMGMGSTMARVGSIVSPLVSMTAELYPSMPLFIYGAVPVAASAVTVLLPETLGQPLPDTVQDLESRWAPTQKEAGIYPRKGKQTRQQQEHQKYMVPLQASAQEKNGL
Excerpt: (§1) Vector-transfected HEK cells were used as a control.

in vitro = conditions: human, Caco-2
OATP1B1 [2] = molecular target: T2, OATP1B1; experiment: Substrate of OATP1B1, uptake in HEK293 cells
Excerpt: as §1

BSEP [3] = molecular target: T4, BSEP (Homo sapiens, UniProt O95342); experiment: Substrate of BSEP; conditions: test article 1 and 10 μM
human hepatocytes = experiment: Cytotoxicity of six test articles in hepatocyte cultures (MTS); conditions: Donor 1, 72±2 hours
BSEP [4] = molecular target: T4, BSEP; experiment: Inhibitor of BSEP; conditions: for Inhibition of BSEP / Inhibitor of BSEP: two concentrations per test article
MATE2K = MATE2K (Homo sapiens, UniProt Q86VL8); experiment: Inhibitor of MATE2-K, probe substrate uptake; conditions: for Inhibition of MATE2-K / Inhibitor of MATE2-K: two concentrations per test article; for potency estimated from few doses: read-out: Estimated IC50, MATE2-K
OATP1B3 = OATP1B3 (Homo sapiens, UniProt Q9NPD5); experiment: Substrate of OATP1B3, uptake in HEK293 cells
Excerpt: as §1

MATE1 = molecular target: T5, MATE1 (Homo sapiens, UniProt Q96FL8); experiment: Substrate of MATE1, uptake in HEK293 cells
T5 sequence (Q96FL8 1-570): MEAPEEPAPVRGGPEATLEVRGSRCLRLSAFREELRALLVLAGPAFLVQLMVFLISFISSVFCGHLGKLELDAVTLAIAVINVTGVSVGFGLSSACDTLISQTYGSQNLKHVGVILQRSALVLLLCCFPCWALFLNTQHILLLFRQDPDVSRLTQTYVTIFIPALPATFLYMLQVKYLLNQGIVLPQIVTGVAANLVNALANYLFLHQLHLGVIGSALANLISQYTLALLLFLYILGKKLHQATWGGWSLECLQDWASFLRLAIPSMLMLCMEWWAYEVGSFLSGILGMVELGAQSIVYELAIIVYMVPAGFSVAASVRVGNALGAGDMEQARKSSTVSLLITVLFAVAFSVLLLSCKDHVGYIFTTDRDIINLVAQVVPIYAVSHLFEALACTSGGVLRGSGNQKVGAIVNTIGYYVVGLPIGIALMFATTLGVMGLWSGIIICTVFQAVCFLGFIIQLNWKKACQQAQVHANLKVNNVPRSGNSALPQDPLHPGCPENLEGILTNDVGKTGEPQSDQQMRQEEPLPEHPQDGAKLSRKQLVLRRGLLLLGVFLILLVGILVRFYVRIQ
Excerpt: as §1

[5] = test article 1 and 10 μM, Caco-2 cells
[6] = estimated from two concentrations
[7] = Caco-2, two concentrations per test article
[8] = estimated from two concentrations, Caco-2 cells
[9] = two concentrations per test article, Caco-2 cells

T4 sequence (O95342 whole entry): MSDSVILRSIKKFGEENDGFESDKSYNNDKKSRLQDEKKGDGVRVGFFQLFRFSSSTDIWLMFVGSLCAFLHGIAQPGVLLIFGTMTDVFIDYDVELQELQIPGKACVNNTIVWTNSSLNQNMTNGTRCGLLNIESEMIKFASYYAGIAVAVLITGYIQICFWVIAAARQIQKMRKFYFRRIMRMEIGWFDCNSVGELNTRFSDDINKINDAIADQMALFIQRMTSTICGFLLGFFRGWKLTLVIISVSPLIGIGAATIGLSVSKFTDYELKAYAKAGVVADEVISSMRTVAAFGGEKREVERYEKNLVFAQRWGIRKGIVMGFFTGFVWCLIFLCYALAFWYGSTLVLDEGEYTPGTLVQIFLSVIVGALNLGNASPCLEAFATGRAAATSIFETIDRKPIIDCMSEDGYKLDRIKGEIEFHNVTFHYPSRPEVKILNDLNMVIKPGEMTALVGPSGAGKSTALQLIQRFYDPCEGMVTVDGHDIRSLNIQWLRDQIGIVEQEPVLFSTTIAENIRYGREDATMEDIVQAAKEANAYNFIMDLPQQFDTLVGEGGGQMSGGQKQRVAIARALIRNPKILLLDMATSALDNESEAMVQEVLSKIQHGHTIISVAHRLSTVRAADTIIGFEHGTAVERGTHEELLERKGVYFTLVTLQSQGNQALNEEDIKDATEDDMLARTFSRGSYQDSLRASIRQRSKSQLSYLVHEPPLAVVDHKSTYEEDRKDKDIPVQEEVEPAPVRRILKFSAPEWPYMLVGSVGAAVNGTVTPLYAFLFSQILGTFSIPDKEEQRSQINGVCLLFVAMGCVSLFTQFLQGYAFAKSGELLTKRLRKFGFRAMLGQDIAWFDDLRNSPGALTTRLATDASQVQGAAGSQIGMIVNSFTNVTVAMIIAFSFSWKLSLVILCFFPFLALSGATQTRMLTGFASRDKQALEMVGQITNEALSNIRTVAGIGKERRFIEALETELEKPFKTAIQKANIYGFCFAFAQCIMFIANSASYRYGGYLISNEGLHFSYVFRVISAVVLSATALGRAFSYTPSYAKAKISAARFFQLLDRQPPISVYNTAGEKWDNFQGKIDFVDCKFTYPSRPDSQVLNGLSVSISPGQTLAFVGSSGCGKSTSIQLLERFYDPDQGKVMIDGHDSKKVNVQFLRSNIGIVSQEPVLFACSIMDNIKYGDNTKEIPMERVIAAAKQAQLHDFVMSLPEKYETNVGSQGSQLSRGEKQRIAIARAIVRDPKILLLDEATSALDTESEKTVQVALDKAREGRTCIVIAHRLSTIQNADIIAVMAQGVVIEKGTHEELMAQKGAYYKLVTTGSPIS
MATE2K, sequence (Q86VL8 1-566 isoform Q86VL8-3): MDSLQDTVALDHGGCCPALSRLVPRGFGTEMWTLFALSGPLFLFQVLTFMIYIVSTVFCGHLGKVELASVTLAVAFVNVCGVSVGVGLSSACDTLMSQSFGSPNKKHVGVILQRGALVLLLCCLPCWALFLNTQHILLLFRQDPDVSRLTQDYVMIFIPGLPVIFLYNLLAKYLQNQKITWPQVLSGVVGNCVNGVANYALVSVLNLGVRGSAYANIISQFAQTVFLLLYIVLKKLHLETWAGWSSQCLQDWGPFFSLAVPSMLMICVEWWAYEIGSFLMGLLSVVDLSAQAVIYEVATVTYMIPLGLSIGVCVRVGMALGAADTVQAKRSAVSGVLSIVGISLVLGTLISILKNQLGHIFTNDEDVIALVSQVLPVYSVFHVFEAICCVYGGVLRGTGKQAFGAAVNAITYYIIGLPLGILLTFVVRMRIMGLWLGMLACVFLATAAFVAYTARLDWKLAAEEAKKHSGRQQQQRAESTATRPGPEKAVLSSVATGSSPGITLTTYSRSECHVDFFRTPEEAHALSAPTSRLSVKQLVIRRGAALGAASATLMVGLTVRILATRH
T2 sequence (Q9Y6L6 whole entry): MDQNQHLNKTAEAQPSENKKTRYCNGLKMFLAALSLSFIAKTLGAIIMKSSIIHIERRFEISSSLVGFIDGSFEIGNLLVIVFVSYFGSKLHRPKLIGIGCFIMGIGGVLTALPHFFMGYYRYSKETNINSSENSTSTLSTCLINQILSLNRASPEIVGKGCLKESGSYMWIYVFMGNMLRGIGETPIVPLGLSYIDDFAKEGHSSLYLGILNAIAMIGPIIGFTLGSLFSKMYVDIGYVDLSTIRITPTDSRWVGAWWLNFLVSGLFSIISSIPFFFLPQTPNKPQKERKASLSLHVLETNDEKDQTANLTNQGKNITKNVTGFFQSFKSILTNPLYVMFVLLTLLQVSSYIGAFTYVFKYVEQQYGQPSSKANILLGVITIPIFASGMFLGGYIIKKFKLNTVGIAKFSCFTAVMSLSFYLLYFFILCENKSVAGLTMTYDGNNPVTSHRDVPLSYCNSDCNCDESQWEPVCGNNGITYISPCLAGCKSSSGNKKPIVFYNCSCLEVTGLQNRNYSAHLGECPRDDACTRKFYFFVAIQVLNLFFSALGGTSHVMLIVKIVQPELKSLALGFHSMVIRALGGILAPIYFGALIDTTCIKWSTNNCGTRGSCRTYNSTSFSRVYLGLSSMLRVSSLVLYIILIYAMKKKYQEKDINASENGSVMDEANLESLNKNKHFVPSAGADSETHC
P-gp, sequence (P08183 whole entry): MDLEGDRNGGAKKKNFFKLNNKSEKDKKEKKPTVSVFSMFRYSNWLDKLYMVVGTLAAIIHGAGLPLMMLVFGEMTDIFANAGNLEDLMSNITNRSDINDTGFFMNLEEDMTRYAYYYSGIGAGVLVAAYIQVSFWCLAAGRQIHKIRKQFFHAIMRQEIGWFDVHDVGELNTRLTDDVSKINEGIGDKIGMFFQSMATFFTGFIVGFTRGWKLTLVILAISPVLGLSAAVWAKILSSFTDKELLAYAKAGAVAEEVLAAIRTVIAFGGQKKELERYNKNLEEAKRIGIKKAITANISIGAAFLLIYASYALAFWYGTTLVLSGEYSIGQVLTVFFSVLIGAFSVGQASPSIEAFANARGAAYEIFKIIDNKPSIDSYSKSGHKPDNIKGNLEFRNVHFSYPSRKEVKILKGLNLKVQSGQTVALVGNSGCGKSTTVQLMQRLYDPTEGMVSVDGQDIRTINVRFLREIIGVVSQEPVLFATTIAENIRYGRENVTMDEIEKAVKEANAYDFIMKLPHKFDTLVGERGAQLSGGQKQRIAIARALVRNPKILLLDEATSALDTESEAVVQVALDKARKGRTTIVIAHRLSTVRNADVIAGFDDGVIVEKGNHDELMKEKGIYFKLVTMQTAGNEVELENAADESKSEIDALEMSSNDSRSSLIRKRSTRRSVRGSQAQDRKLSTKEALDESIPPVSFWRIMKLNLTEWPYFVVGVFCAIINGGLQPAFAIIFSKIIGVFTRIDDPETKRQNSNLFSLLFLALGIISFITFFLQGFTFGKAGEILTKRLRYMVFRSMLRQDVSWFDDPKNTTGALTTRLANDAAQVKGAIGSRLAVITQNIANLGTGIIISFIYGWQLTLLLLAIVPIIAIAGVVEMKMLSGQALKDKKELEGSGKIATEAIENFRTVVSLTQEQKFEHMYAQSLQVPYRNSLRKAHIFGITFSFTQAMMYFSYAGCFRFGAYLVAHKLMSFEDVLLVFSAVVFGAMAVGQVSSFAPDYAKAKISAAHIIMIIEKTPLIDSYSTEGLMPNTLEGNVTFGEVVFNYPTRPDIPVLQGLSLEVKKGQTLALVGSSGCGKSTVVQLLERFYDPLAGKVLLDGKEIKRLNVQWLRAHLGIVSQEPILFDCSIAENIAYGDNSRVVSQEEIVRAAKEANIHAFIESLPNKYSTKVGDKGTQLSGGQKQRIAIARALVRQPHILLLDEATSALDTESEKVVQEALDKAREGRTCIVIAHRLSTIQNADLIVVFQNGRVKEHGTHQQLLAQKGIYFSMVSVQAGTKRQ
OATP1B3, sequence (Q9NPD5 whole entry): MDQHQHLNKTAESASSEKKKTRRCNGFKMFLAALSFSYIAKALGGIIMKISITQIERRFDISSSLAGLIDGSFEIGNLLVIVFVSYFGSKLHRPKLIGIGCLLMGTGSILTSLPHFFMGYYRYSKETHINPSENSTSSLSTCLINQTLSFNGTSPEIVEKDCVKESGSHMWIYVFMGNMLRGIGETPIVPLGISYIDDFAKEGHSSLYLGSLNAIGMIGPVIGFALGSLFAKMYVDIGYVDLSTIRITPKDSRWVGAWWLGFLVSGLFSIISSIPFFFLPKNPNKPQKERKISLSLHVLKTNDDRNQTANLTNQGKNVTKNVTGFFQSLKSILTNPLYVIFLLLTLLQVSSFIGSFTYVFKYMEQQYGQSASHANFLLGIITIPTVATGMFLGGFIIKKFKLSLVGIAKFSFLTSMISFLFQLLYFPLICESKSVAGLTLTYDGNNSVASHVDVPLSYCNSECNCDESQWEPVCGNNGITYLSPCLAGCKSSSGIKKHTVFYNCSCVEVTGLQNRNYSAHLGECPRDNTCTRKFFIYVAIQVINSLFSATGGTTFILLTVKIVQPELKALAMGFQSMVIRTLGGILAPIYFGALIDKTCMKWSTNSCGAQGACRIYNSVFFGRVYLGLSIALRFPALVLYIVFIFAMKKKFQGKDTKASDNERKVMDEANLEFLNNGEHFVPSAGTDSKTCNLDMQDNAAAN

| Molecule | Substrate of BCRP (BCRP; Caco-2, 1 and 10 μM) | Substrate of BCRP (BCRP; [5]) | potency estimated from few doses (OATP1B1 [1]; [6]) | Inhibition of OATP1B1 (OATP1B1 [1]) | Inhibitor of OATP1B1 (OATP1B1 [1]) | Inhibitor of P-gp (P-gp; [7]) | Remaining P-gp activity, % of the control (P-gp; higher test concentration) | Remaining P-gp activity, % of the control (P-gp; lower test concentration) | potency estimated from few doses (P-gp; [8]) | Inhibitor of P-gp (P-gp; [9]) | Substrate of OAT1 (OAT1; 1 and 10 μM) | Substrate of OAT1 (OAT1; test article 1 and 10 μM) | Substrate of OATP1B1 (OATP1B1 [2]; 1 and 10 μM) | Substrate of OATP1B1 (OATP1B1 [2]; test article 1 and 10 μM) | Substrate of BSEP (BSEP [3]) | Concentrations at which not hepatotoxic (human hepatocytes) | Inhibition of BSEP (BSEP [4]) | Inhibitor of BSEP (BSEP [4]) | Inhibition of MATE2-K (MATE2K) | Inhibitor of MATE2-K (MATE2K) | also measured |
| --- | --- | --- | --- | --- | --- | --- | --- | --- | --- | --- | --- | --- | --- | --- | --- | --- | --- | --- | --- | --- | --- |
| O=C(O)Cc1ccccc1 [Phenylacetic acid, phenylacetic acid] | not a substrate | No | > 7500 µM | inhibited | Yes | weak inhibitor | 75.6% | 85.9% | > 7500 µM | Yes | not a substrate | No | not a substrate | No | No | ≤ 500 µM | inhibited | Yes | did not inhibit | No | Papp A→B (in vitro): ≥ 26.1 ×10⁻⁶ cm/s; Papp B→A (in vitro): ≥ 16.9 ×10⁻⁶ cm/s; recovery (in vitro): ≥ 90.2%; potency estimated from few doses (BSEP [4]; human): < 7500 µM; Uptake in OATP1B3 cells (OATP1B3; 1 μM): 5.27 pmol/minute/mg protein; Net OATP1B3 uptake remaining with inhibitor (OATP1B3; 10 μM): 79.0%; Uptake in OATP1B3 cells (OATP1B3; 10 μM): 19.3 pmol/min/mg; Substrate of OATP1B3 (OATP1B3; 1 and 10 μM): identified as a substrate; Substrate of OATP1B3 (OATP1B3; test article 1 and 10 μM): Yes; Substrate of MATE1 (MATE1; 1 and 10 μM): not a substrate; Substrate of MATE1 (MATE1; test article 1 and 10 μM): No^a |
| tauroursodeoxycholic acid [TUDCA] | as a substrate | Yes | < 50 µM | inhibited | Yes | identified as an inhibitor | 57.3% | 78.8% | > 50 µM | Yes | not a substrate | No | not a substrate | No | Yes | 550 µM | inhibited | Yes | inhibited | Yes | Uptake activity remaining, OATP1B1 (OATP1B1 [1]; 50 μM): roughly 18%; potency estimated from few doses (OATP1B1 [1]; estimated from two doses): < 50 µM; potency estimated from few doses (P-gp; Caco-2, estimated from two doses): > 50 µM; potency estimated from few doses (BSEP [4]; read-out: Estimated IC50, BSEP, estimated from two concentrations): < 5 µM; Uptake activity remaining, MATE2-K (MATE2K; concentration not stated (5 and 50 μM tested)): 44.3%; potency estimated from few doses (MATE2K; [6]): < 50 µM; potency estimated from few doses (MATE2K; estimated from two doses): < 50 µM; Uptake by OATP1B3 (OATP1B3; 1 and 10 μM): 5.90 pmol/minute/mg protein; Substrate of OATP1B3 (OATP1B3; test article 1 and 10 μM): Yes; Substrate of MATE1 (MATE1; 1 and 10 μM): not a substrate; Substrate of MATE1 (MATE1; test article 1 and 10 μM): No |
